Assay [1] relates to three human cancer cell lines. In words: Growth inhibition by compound 39, total DNA content after 7 days growth. It is filed as cell-based. The note with it: 168 h, range across three human cancer cell lines, read-out: 50% inhibitory concentrations. As to the method:
(§1) The following day, ent-steroidal compound 39 was added in 2-fold dilutions (8 wells/concentration). After 7 days growth, cells were lysed and analyzed for total DNA content as described in Montano et al. (See, Montano, R., et al., Mol. Cancer Therap., 11:427-438 [2012]).

The subject of assay [2] is AsPC-1. In words: Growth inhibition by Compound 39 (DNA fluorescence, FIG. 3D). The assay is classed as cell-based. Particulars: Homo sapiens, ASPC1, read-out: calculated GI50 against AsPC-1. How it is done: as §1
(§2) Compound 39 was also investigated for growth inhibition in three cancer cell lines: MDA-MB-231, AsPC-1, and U2OS (human osteosarcoma).

For assay [3], the system named is MDA-MB-231. The assay is described as above. It is filed as cell-based. Particulars: Homo sapiens, read-out: calculated GI50 against MDA-MB-231. How it is done:
as §1, §2

Assay [4] relates to U2OS (human osteosarcoma). The assay is described as above. It is filed as cell-based. The note with it: read-out: calculated GI50 against U2OS. How it is done:
as §1, §2

The test system of assay [5] is AsPC-1. In words: In vitro growth inhibition (Hoechst 33258 DNA fluorescence, 6 days). The note with it: Homo sapiens, ASPC1, 144 h, concentration that inhibited growth by 50%, 2-fold dilutions from 40 μM. It is filed as cell-based. As to the method: (§3) Fifteen (15) exemplary compounds were investigated for growth inhibition in two cancer cell lines (one for breast and one for pancreatic cancer: MDA-MB-231 and AsPC-1, respectively).
(§4) Procedure: Inhibition of cell growth was accessed by plating 1000 cells per well of a 96-well plate. The following day, compounds were added as 2-fold dilutions from 40 μM (8 wells/concentration). After 6 days, cells were washed, lysed and stained with Hoechst 33258. Fluorescence was read on a microplate spectrofluorometer. Results are expressed as the concentration that inhibited growth by 50% (GI50). See Rao, J., Otto, W. R. Fluorometric DNA assay for cell growth estimation. Anal Biochem. 1992; 207:186-192.

The test system of assay [6] is MDA-MB-231. Described as above. It is filed as cell-based. Particulars: Homo sapiens, MDA-MB-231, 144 h, concentration that inhibited growth by 50%, 2-fold dilutions from 40 μM. How it is done:
as §3, §4

For a further assay, the target named is ER-β (Homo sapiens, UniProt Q92731). In words: ER-β agonist activity. It is filed as cell-based.
Sequence of ER-β (Q92731 whole entry, species assumed): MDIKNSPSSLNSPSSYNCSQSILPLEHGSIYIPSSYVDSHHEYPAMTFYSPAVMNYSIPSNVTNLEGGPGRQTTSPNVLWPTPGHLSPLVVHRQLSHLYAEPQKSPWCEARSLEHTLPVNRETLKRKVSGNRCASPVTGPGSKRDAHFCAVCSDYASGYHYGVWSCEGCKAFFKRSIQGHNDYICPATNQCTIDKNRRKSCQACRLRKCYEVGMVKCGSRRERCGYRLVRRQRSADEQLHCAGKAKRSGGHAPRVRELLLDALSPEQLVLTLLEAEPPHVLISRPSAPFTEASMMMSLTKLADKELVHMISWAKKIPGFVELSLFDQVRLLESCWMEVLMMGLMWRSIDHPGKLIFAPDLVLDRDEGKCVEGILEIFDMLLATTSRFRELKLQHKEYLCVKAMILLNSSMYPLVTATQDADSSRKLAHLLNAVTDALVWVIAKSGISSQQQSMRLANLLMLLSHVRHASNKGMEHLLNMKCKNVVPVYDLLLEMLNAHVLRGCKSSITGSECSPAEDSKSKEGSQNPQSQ
In a further assay the target is T1, ER-α (Homo sapiens, UniProt P03372).
T1 sequence (P03372 1-595): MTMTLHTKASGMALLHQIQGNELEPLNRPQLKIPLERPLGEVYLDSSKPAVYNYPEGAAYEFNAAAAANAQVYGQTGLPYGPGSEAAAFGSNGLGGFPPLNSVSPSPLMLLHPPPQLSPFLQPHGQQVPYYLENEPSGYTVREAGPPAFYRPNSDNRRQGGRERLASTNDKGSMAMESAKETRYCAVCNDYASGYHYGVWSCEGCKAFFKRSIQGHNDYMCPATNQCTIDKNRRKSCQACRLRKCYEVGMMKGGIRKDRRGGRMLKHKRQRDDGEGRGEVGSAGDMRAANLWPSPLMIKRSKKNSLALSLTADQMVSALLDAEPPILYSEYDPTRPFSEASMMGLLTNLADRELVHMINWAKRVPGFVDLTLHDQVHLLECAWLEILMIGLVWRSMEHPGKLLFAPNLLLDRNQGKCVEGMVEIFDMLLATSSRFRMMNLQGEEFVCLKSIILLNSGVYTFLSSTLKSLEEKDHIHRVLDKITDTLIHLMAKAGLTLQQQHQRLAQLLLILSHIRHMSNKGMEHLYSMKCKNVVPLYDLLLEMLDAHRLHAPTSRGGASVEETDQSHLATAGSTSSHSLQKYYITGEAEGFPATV
In words: ER-α agonist activity. The assay is classed as cell-based.

The next assay deals with CLK-4 (Homo sapiens, UniProt Q9HAZ1). In words: Affinity to CLK-4. It is filed as binding. The note with it: member of the family of CDC-2-like kinases.
Sequence of CLK-4 (Q9HAZ1 whole entry, species assumed): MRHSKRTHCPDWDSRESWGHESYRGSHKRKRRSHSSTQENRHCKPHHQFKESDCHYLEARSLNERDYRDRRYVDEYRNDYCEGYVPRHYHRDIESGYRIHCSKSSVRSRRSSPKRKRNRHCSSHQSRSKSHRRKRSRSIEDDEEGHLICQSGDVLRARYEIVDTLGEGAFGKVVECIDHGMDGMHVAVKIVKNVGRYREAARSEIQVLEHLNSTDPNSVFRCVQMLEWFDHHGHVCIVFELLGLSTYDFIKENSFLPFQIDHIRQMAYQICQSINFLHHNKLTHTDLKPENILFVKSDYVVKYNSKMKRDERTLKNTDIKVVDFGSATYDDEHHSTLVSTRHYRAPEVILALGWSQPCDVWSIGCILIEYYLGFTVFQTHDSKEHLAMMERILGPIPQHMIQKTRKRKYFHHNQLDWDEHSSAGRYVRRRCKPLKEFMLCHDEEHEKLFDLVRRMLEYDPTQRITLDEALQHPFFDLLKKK
The subject of assay [7] is MDA-MB-231, AsPC-1, and A549. In words: Growth of several cancer cell lines incubated with Compound 205b. It is filed as cell-based, human. Particulars: range across MDA-MB-231, AsPC-1, and A549. As to the method: as §4
(§5) Compound 205b has been identified as a uniquely potent and selective agonist of ER-β, having an EC50=20 nM for ER-β and an EC50 over 3000 nM for ER-α.

The test system of assay [8] is cancer cell lines (MDA-MB-231, AsPC-1, and A549). In words: Cell cycle analysis and microscopic analysis of cancer cells treated with Compound 205b. The assay is classed as cell-based, human. The note with it: at 0.8-5 μM. How it is done: as §5

“And” between values parts separate entries of the source, which are not always exact repeats. Equal entries are not always repeated. A value given as a limit tells only on which side of the number the result lay.

For `C[C@@]12CC=C3C(=CC(=O)c4ccccc43)[C@H]1C[C@H](O)C2` [Compound 39], the IC50 in [1] was 1.2 µM to 4 µM and 0.32 µg/mL to 1.07 µg/mL. For the same compound, the GI50 was ~4 µM in the assay with AsPC-1 [2]; 0.32 µg/mL and 1.2 µM in the assay with MDA-MB-231 [3]; ~4 µM in assay [4].

Turning to `COc1ccc2c(Br)cc3c(c2c1)CC[C@]1(C)C[C@H](O)C[C@@H]31` [Compound 201a], the GI50 with AsPC-1 [5] and in the assay with MDA-MB-231 [6] was 15 µM each time.

With `COc1ccc2ccc3c(c2c1)CC[C@]1(C)C[C@H](O)C[C@@H]31` [Compound 201b], the GI50 amounted to 30 µM in the assay on AsPC-1 [5] and 25 µM with MDA-MB-231 [6].

For the compound `COc1ccc2c(C#Cc3ccccc3)cc3c(c2c1)CC[C@]1(C)C[C@H](O)C[C@@H]31` [Compound 201c], the GI50 in the assay with AsPC-1 [5] came to 30 µM; in the assay with MDA-MB-231 [6], 20 µM.

Take `C[C@]12CCc3c(cc(Br)c4ccc(O)cc34)[C@@H]1C[C@@H](O)C2` [Compound 205a]: the concentration for 50% growth inhibition (GI50) with AsPC-1 [5] was 10 µM; with MDA-MB-231 [6] it was 17 µM.

As for `C[C@]12CCc3c(ccc4ccc(O)cc34)[C@@H]1C[C@@H](O)C2` [Compound 205b], the GI50 in the assay with AsPC-1 [5] was 2 µM; with MDA-MB-231 [6], 0.8 µM. Also, the EC50 at ER-β was 0.02 µM; at ER-α it was > 3 µM. Besides, at CLK-4, the Kd was ~0.35 µM. Moreover, the “concentration at which growth was inhibited” value in assay [7] fell in the range of 0.8 to 5 µM. Moreover, in assay [8], the “mitotic arrest by microscopic analysis” value is given as “cells arrested in mitosis at prometaphase”. In addition, the cell cycle arrest result in [8] (parallel experiments) is recorded as “arrested cells in G2/M phase of the cell cycle”.

Take `C[C@]12CCc3c(cc(C#Cc4ccccc4)c4ccc(O)cc34)[C@@H]1C[C@@H](O)C2` [Compound 205c]: the 50% growth inhibitory concentration (GI50) in the assay with AsPC-1 [5] worked out at 9 µM; in the assay with MDA-MB-231 [6], 8 µM.

In the case of `COc1ccc2c(Br)cc3c(c2c1)CC[C@]1(C)C[C@@H](O)C[C@@H]31` [Compound 206a], the GI50 in the assay on AsPC-1 [5] and with MDA-MB-231 [6] was 20 µM each time.

`COc1ccc2ccc3c(c2c1)CC[C@]1(C)C[C@@H](O)C[C@@H]31` [Compound 206b]: the GI50 in the assay on AsPC-1 [5] was found to be 40 µM; with MDA-MB-231 [6] it was 30 µM.

As to `COc1ccc2c(C#Cc3ccccc3)cc3c(c2c1)CC[C@]1(C)C[C@@H](O)C[C@@H]31` [Compound 206c], the GI50 in the assay on AsPC-1 [5] and in the assay on MDA-MB-231 [6] was 15 µM each time.

With `C[C@]12CCc3c(cc(Br)c4ccc(O)cc34)[C@@H]1C[C@H](O)C2` [Compound 207a], the GI50 with AsPC-1 [5] and in the assay on MDA-MB-231 [6] was 30 µM each time.

With `C[C@]12CCc3c(ccc4ccc(O)cc34)[C@@H]1C[C@H](O)C2` [Compound 207b], the GI50 was found to be 40 µM in the assay on AsPC-1 [5] and 20 µM with MDA-MB-231 [6].

Take `C[C@]12CCc3c(cc(C#Cc4ccccc4)c4ccc(O)cc34)[C@@H]1C[C@H](O)C2` [Compound 207c]: the GI50 in the assay on AsPC-1 [5] came to 15 µM; in the assay with MDA-MB-231 [6], 5 µM.

For `COc1ccc2c(F)cc3c(c2c1)CC[C@]1(C)C[C@H](O)C[C@@H]31` [Compound 208a], the 50% growth inhibitory concentration (GI50) was 30 µM with AsPC-1 [5] and 25 µM in the assay on MDA-MB-231 [6].

For the compound `C[C@]12CCc3c(cc(F)c4ccc(O)cc34)[C@@H]1C[C@@H](O)C2` [Compound 208b], the GI50 with AsPC-1 [5] is 8 µM; in the assay with MDA-MB-231 [6] it was 4 µM.

In the case of `COc1ccc2c(F)cc3c(c2c1)CC[C@]1(C)C[C@@H](O)C[C@@H]31` [Compound 208c], the figures for the GI50 in the assay with AsPC-1 [5] and in the assay with MDA-MB-231 [6] were 25 µM and 5 µM, respectively.

The term GI50 denotes the concentration at which growth is held to half of that of the control. What is called EC50 is the concentration needed to bring the measured effect to its halfway point. For orientation: Kd means the free concentration of one partner at which half of the binding sites on the other are occupied at equilibrium, for simple one-to-one binding. Higher therefore signals a looser complex.
